From patent US11357752B2, “Carolacton and derivatives thereof for use in the treatment of cell proliferation disorders” (Helmholtz-Zentrum für Infektionsforschung GmbH, priority 2017, dated 2022)
Values joined by “and” are separate entries in the source; they are usually repeats but may differ in a detail not shown here. Identical values can stand only once.

Assays:
[1] = target: T1, ecFoID (Escherichia coli, UniProt P24186); assay: FoID dehydrogenase (DH) enzyme assay; format: biochemical, E. coli; conditions: for Ki: carolacton inhibition on DH activity, ecFoID
T1 construct: His-tag (vector pHis-TEV); made in house; host or cells: E. coli BL21 (DE3)
Method: (§1) (6R,S)-5,10-Methylene-5,6,7,8-tetrahydrofolic acid ((6R,S)-5,10-CH2-THF), calcium salt and (6R,S)-5,10-Methenyl-5,6,7,8-tetrahydrofolic acid ((6R,S)-5,10-CH=THF) chloride were purchased from Schircks Laboratories (Bauma, Switzerland) and were used as substrates for FoID dehydrogenase and cyclohydrolase enzyme assays, respectively. Only the R-isomer, which accounts for 50% of (6R,S)-5,10-CH2-THF and (6R,S)-5,10-CH=THF, respectively, is used by the enzyme. (6R,S)-5,10-CH2-THF was dissolved in N2-spargeled basic buffer (50 mM Tris-HCl (pH 8.0), 100 mM β-mercaptoethanol) as described by Sah and Varshney, 2015a (6R,S)-5,10-CH=THF was first dissolved in DMSO as a 100 mM stock solution.
(§2) Because FoID is a bifunctional enzyme, dehydrogenase and cyclohydrolase activities were determined for FoID enzyme kinetics, respectively. The dehydrogenase activity of FoID was assayed for its substrate 5,10-CH2-THF and cofactor NADP+ (in the case of MTHFD2, NAD+ was used as cofactor) based on monitoring the formation of 5,10-CH=THF while the cyclohydrolase activity of FoID was determined for its substrate 5,10-CH=THF by monitoring the hydrolysis of 5,10-CH2-THF. The enzyme kinetics for the dehydrogenase activity of all FoIDs except hsMTHFD1_DC were determined at 30° C. in 50 mM Tris-HCl (pH 7.5), 30 mM β-mercaptoethanol. The hsMTHFD1_DC dehydrogenase activity was measured in 25 mM MOPS (pH 7.3), 30 mM β-mercaptoethanol at 30° C. To measure the enzyme kinetics constants for 5,10-CH2-THF, for example in the case of ecFoID, the NADP concentration was fixed at 1 mM and the concentration of 5,10-CH2-THF varied from 5 μM to 1,500 μM (R-isomer). Similarly, to measure the kinetic constants of ecFoID for NADP+, the concentration of 5,10-CH2-THF (R-isomer) was fixed at 1 mM and the concentration of NADP+ varied from 10 μM to 1,500 μM. For different FoIDs, the varied concentration range of substrates could be different. The 50 μL reactions of dehydrogenase assays were initiated by adding appropriate amounts enzyme (4 nM ecFoID, 4 nM spFoID, 15 nM hsMTHFD1_DC, 20 nM hsMTHFD2, 20 nM G8S, 20 nM Q98H, 10 nM K54N, 200 nM ΔK54R55 in the corresponding assays) and terminated with 50 μL 1 M HCl after 2 min incubation at 30° C. To monitor the formation of 5,10-CH=THF, the absorbance of the reaction mixture was monitored at 350 nm in micro UV cuvettes (BRAND, Essex, Connecticut, USA). The concentration of 5,10-CH=THF produced in the reaction was determined using an extinction co-efficient of 0.0249 μM-1 cm-1. Cyclohydrolase activity for each FoID was assayed in the same buffer as dehydrogenase activity at 30° C. but for 30 s. The concentration of FoID used in each assay was 5 nM of ecFoID, spFoID and hsMTHFD1_DC, respectively, and 2 nM of hsMTHFD2. The consumption of 5,10-CH=THF was measured by recording the absorbance of the reactions at 355 nm using the TECAN Infinite 200 PRO equipped with a monochromator. To measure the enzyme kinetic constants, different concentrations of 5,10-CH=THF (varied from […]) were used in […] reaction mixtures. The inhibition constants (Ki) of carolacton on FoID were determined by measuring the apparent Km values when adding certain amounts of carolacton to the enzyme reactions. For ecFoID, 10 nM carolacton was added in the dehydrogenase assay and 50 nM carolacton was used in the cyclohydrolase assay. For spFoID, 25 nM carolacton was added in both dehydrogenase assay and cyclohydrolase assay. For hsMTHFD1_DC, 30 nM carolacton was added in the dehydrogenase assay and 10 nM in the cyclohydrolase assay. […] To compare the inhibition effects of carolacton between the different FoIDs, the half maximal inhibitory concentration (IC50) of carolacton on the same amount of enzyme was determined for FoIDs involved in this study. The enzyme concentration used to determine dehydrogenase activity IC50 was 10 nM, and the enzyme used for cyclohydrolase IC50 measurements was 5 nM. All enzyme kinetics measurements were performed as independent triplicates. […]

[2] = target: T2, ecFoID G8S (Escherichia coli, UniProt P24186, G8S); assay: FoID dehydrogenase (DH) enzyme assay; format: biochemical, E. coli
T2 construct: made in house; host or cells: E. coli BL21 (DE3)
Method: as §1, §2

[3] = target: T3, ecFoID K54N (Escherichia coli, UniProt P24186, K54N); assay: FoID dehydrogenase (DH) enzyme assay; format: biochemical, E. coli
T3 construct: made in house; host or cells: E. coli BL21 (DE3)
Method: as §1, §2

[4] = target: T4, ecFoID Q98H (Escherichia coli, UniProt P24186, Q98H); assay: FoID dehydrogenase (DH) enzyme assay; format: biochemical, E. coli
T4 construct: made in house; host or cells: E. coli BL21 (DE3)
Method: as §1, §2

[5] = target: T5, ecFoID ΔK54R55 (Escherichia coli, UniProt P24186, DEL54-55); assay: FoID dehydrogenase (DH) enzyme assay; format: biochemical, E. coli
T5 construct: made in house; host or cells: E. coli BL21 (DE3)
Method: as §1, §2

[6] = test system: S. pneumoniae TIGR4ΔfoID; assay: Planktonic growth of S. pneumoniae foID deletion mutant; format: cell-based, Streptococcus pneumoniae; conditions: 0.25 μg/ml carolacton
Method: FIG. 4. Carolacton effects on S. pneumoniae TIGR4 and foID deletion, complementation and fhs deletion mutants. (A) Growth inhibition of planktonic cultures of S. pneumoniae TIGR4 wild type, ΔfoID deletion mutant and controls in THBY. Carolacton (caro) (0.25 μg/ml) was added at an optical density of 600 nm (OD600) of 0.15. (B) Planktonic growth of the S. pneumoniae TIGR4 wild type and the TIGR4Δfhs mutant in THBY. Cultures were treated with 0.25 μg/ml carolacton (OD600 0.15).
The Streptococcus mutans and Streptococcus pneumoniae strains used herein are UA159 and TIGR4, respectively. S. pneumoniae TIGR4 was routinely grown on Columbia blood agar plates (BD Biosciences) as described previously (Donner et. al, 2016). Streptococci were grown in Todd-Hewitt-Broth +1% (w/v) yeast extract (THBY, BD Biosciences)) at 37° C. and 5% CO2. The E. coli ToIC strain used in carolacton-resistant mutant development is an antibiotic-sensitive E. coli strain without its outer membrane channel protein ToIC. E. coli DH1OB or DH5α strain was used for gene cloning and E. coli BL21 (DE3) was used for protein expression. The protein expression plasmid pHis-TEV (Liu et al., 2009) was used for cloning and expression of all different foID gene orthologues studied herein.

`CO[C@H](CC(=O)O)[C@@H](C)C(=O)[C@H](C)/C=C(\C)[C@H]1OC(=O)[C@H](O)[C@H](O)/C=C/[C@H](C)CCC[C@@H]1C` [Carolacton, carolacton] was tested, and the IC50 [1] was 15.5 nM, the Ki ([1]; Ki (5,10-CH2—THF), vs 5,10-CH2-THF) was 21 nM and 21.3 nM and the Ki ([1]; Ki (NADP^+), vs cofactor NADP+) was 11 nM and 10.9 nM. For the same compound, the IC50 [2] was 86.5 nM, the “sensitivity of residual DH activity to carolacton” value [3] was “completely insensitive” and the IC50 [4] was 313 nM. For the same compound, the “sensitivity of residual DH activity to carolacton” value [5] was “completely insensitive” and the “sensitivity of planktonic growth to carolacton” value [6] was “carolacton resistant”.
